Experimental data taken from US20250073209A1, “COVALENT TARGETING OF RhoA FOR CANCER THERAPY” (The University of Hong Kong, priority 2023, published 2025).

How the values were obtained:
HCT116 cells = experiment: Flow cytometry cell cycle analysis; format: cell-based, human; settings: HCT116, 24 h
Protocol: HCT116 cells were seeded onto 6-well plates (500,000 cells) and cultured overnight in complete medium at 37° C. with 5% CO2. After treatment with DMSO control or CL16 at the indicated concentration for 24 h, cells were harvested by trypsin digestion, washed with PBS, and fixed in 70% cold ethanol on ice for 30 minutes. The cells were then centrifuged at 250g for 5 min and resuspended in staining buffer (PBS with 0.05% Triton X-100) containing propidium iodide (50 μg/mL) and RNase (100 μg/mL) for 30 min at 37° C. in the dark. The cells were then filtered through a 40 μm strainer and analyzed by flow cytometry. Representative FACS plots were developed to illustrate the gating strategy in studying cell cycle. The NovoCyte Advanteon BVYG analyzer was used to acquire cell events, and the data were processed using NovoExpress software.
The molecular mechanisms of anticancer effects from CL16 were investigated. […] Immunoblotting of cell cycle checkpoint proteins in HCT116 cells underwent CL16 treatment for 24 h.

Rac1 = Rac1 (Homo sapiens, UniProt P63000); experiment: Gel-based competitive ABPP, second screening on Rac1; format: binding
Protocol: Recombinant human RhoA (0.1 μg; ab101594) was pretreated with cysteine-reactive compounds or DMSO for 1 hour at room temperature, followed by incubation with iodoacetamide-rhodamine (IA-Rh; 1 μM) for 1 hour at room temperature. The reaction was then quenched by boiling in sampling buffer. Samples were subjected to SDS-PAGE to separate proteins bands. In-gel fluorescence intensity was measured with a Chemidoc using setting for Rhodamine. Gel was subsequently stained with silver stain (Pierce) for visualization of protein content and covalent modification. Band intensity was quantified using ImageJ.
CL16 was identified for its strong and specific binding with RhoA in covalent ligand screening experiment by ABPP. ABPP is known as a powerful platform for covalent ligand screening, particularly for the identification of lead compounds targeting new hotspots for therapy. Competitive gel-based activity-based protein profiling (ABPP) experiment was performed on purified RhoA protein for screening its interactions with a library of cysteine-reactive covalent ligands with acrylamide or chloroacetamide warheads. RhoA protein for the first screening and on Rac1 and Cdc42 for the second screening to identify lead compounds with specific binding onto RhoA Cys16. […] The reaction mixture was then resolved by SDS-PAGE and in-gel fluorescence was imaged (FIG. 1A). […]

CRCs = experiment: MTT assay on CRC cells; format: cell-based, human; settings: 48 h
Protocol: HCT116 cells was seeded at 2,500 cells/well; HT29, LOVO and SW620 cells were seeded at 4,000 cells/well; CCD-18Co cells were seeded at 10,000/well; and SW480 cells were seeded at 12,000 cells/well in 96 well plate in triplicates. Cells were treated with a concentration gradient of CL16 for 48 hours. Then, cells were incubated with 10% 3-(4,5-Dimethylthiazol-2-yl)-2,5-diphenyltetrazolium bromide (MTT) solution ([…]) in 37° C. for 4 hours. Cells were then lyzed in 10% SDS in […] HCl. Absorbance of individual well was measured at 570 nm. IC50 values were analyzed by nonlinear best-fit regression using Prism Graphpad 9.
As discussed above, overexpression/hyperactivity of RhoA associated with poor prognosis and aggressive behaviors of CRCs (FIG. 8A). Thus, the anti-cancer and anti-metastatic properties of CL16 in CRCs were explored. First, it was confirmed that genetic knockdown of RhoA by siRNA slowed down colony formation and migration of CRCs by using staining (data not shown) and wound healing assay (FIG. 4A). MTT assay was used to determine cell viability of CRCs and normal colon fibroblast CCD-18Co cells treated with CL16 for 48 h (n=3 different biological replicates/group). A much lower expression level of RhoA in normal colon fibroblast CCD-18Co cells was also determined, as compared to CRCs, by western blotting (data not shown). […]

HCT116 xenograft = experiment: Mouse HCT116 xenograft model; format: in vivo; settings: nude mice, 10 mg/kg intraperitoneal
Protocol: FIG. 7A is a graph showing inhibition of tumor growth by CL16 in mouse HCT116 xenografts through intraperitoneal injection at 10 mg/kg (n=6 per group). FIG. 7B is a graph showing inhibition of tumor growth by CL16 in mouse HT29 xenografts through intraperitoneal injection at 10 mg/kg (n=7). FIG. 7C is a graph showing the body weight of mice with HT29 xenografts throughout the treatment with CL16. FIG. 7D is a graph showing inhibition of tumor growth by CL16 in mouse SW620 xenografts through intraperitoneal injection at 10 mg/kg (n=6 per group). FIG. 7E is a bar graph showing the tumor weight of harvested tumors from the treated mice with SW620 xenografts. FIG. 7F is a graph showing the body weight of mice with SW620 xenografts throughout the treatment with CL16. Statistical analysis using a two-tailed Student's t-test. *P<0.05.
7-week-old mice with weight around 20 g were inoculated subcutaneously with HCT116 (2×10^6 cells per mouse) or HT29 (3×10^6 cells per mouse) cells, in serum-free RMPI or Matrigel in PBS respectively. […] The tumor volume and body weight of the nude mice were measured throughout the treatment. The tumor volume was calculated by the equation: Volume (mm^3)=1×w^2/2, where 1 and w were the length and width of the tumor. At the end of the treatment, the mice were sacrificed and the tumor weight was measured. […]

O=C(CCl)N1N=C(c2cc3ccccc3o2)CC1c1ccco1 (stereo not shown) [CL16]
G2 phase cell population (HCT116 cells): significant increase in G2 phase cell population
binding with Rac1 (Rac1): no observable binding
cytotoxicity (cell viability) (CRCs): cytotoxicity effects
tumor growth vs vehicle control (HCT116 xenograft): significantly inhibited tumor growth
